According to patent EP0263968A2, “Use of opiate antagonists in the manufacture of agents for the diagnosis and therapy of hypothalamic function disorders” (Ferring Arzneimittel GmbH, priority 1986, dated 1988):

Legend:
[1] = system: Patientinnen mit hypothalamischer Amenorrhoe; test: Oral naltrexone treatment of patients with hypothalamic amenorrhoea (serial blood sampling, ultrasound); type: in vivo
Experimental: Die basale Gonadotropin Sekretion von Patientinnen, die an hypothalamischer Amenorrhoe litten, wurde durch Bestimmung von LH und FSH, Prolactin und Ovarien-Steroiden in Blutproben bewertet, die alle zehn Minuten während 24 Stunden entnommen wurden. Naltrexon wurde dann in einer Dosis von 50 mg pro Tag während 24 oder 28 Tagen verabreicht. 5 Tage und 14 Tage nach dem Beginn der Naltrexonverabreichung wurden wiederholte Blutproben entnommen. An den übrigen Tagen wurden täglich Blutproben entnommen und es wurde eine Ultraschalluntersuchung nach der Naltrexonverabreichung sowie einige Tage danach durchgeführt. Es wurden folgende Ergebnisse ermittelt:
Auf die Verabreichung von Naltrexon folgte eine Zunahme der Frequenz und der Amplitude der pulsatielen Gonadotropin Sekretion sowie eine Zunahme der mittleren LH und FSH Serumkonzentration sowie der Entwicklung der Gonaden-Steroid Sekretion und der Follikel, was durch Ultraschall festgestellt wurde.

[2] = system: Patientinnen mit normalem Zyklus; test: Naltrexone administration to patients with normal cycle; type: in vivo
Text: Es ergibt sich daher die Möglichkeit, Opiat-Antagonisten zur Diagnose und Therapie hypothalamischer Funktionsstörungen einzusetzen, insbesondere bei solchen, bei denen zu vermuten ist, daß eine Hemmung der entsprechenden Partialfunktion durch vermehrt gebildete Endorphine verursacht ist.

[3] = oral administration possible; cited from earlier work
[4] = system: Patientinnen mit hypothalamischer Amenorrhoe; test: Continuous naloxone infusion in patients with hypothalamic amenorrhoea; type: in vivo; settings: duration 6 to 52 hours
Text: Im Rahmen der vorliegenden Erfindung wurden Untersuchungen an Patientinnen mit hypothalamischer Amenorrhoe durchgeführt. Diese Untersuchungen haben überraschenderweise gezeigt, daß durch die Gabe von Opiat-Antagonisten eine Zunahme von Frequenz und Amplitude der LH und FSH Sekretion erreicht wird. Es kann daher davon ausgegangen werden, daß die endogene GnRH Sekretion durch Opiat-Antagonisten vermehrt wird.
Beispielsweise wurde Naloxon bei Patientinnen mit hypothalamischer Amenorrhoe infundiert. Die Infusionsdauer betrug 6 bis 52 Stunden.

[5] = system: Gonadotropine; test: Diagnostic test: intravenous naloxone in secondary and primary amenorrhoea; type: in vivo
Text: Somit zeigt dieser diagnostische Test, daß bei den Fällen von sekundärer Amenorrhoe die Suppression der Gonadotropine im Serum auf einer erhöhten endogenen Opiataktivität beruht, die therapeutisch durch den längerfristigen Einsatz von Antagonisten gedämpft werden kann.

[6] = 50 mg per day for 24 or 28 days
[7] = patients with hypothalamic amenorrhoea

With `O=C1CC[C@@]2(O)[C@H]3Cc4ccc(O)c5c4[C@@]2(CCN3CC2CC2)C1O5` (some centres unmarked) [Naltrexon, 17-(Cyclopropylmethyl)-4,5-epoxy-3,14-dihydroxymorphinan-6-on] the “Frequenz und Amplitude der pulsatielen Gonadotropin Sekretion” value [1, 6] was “Zunahme”, the “mittlere LH und FSH Serumkonzentration” value [1, 6] was “Zunahme” and the “Patientinnen, die ovulierten” value ([1]; 50 mg per day for 24 or 28 days, 3 patients) was “Eine von 3”. The “Menstruation nach Absetzen des Mittels” value ([1]; 50 mg per day for 24 or 28 days, after withdrawal) was “Sämtliche Patientinnen menstruierten”, the “Entwicklung der Gonaden-Steroid Sekretion und der Follikel” value ([1]; 50 mg per day for 24 or 28 days, follicles by ultrasound) was “Zunahme” and the “menstrueller Zyklus” value ([1]; oral, patients with hypothalamic amenorrhoea) was “Normalisierung”. For the same compound, the Gonadotropin-Sekretion [1, 7] was “Normalisierung”, the “Ovulation, Bildung eines Corpus luteum” value [1, 7] was “zur Ovulation und zur Bildung eines Corpus luteum” and the “Ablauf des Zyklus” value [2] was “keinen Einfluß”. The “Sekretion der gonadotropen Hormone” value [2] was “keinen Einfluß” and the “Verweildauer im Plasma” value [3] was “lange Verweildauer im Plasma”.

In the case of `C=CCN1CC[C@]23c4c5ccc(O)c4OC2C(=O)CC[C@@]3(O)[C@H]1C5` (some centres unmarked) [Naloxon, 17-Allyl-4,5-epoxy-3,14-dihydroxymorphinan-6-on], the “Frequenz und Amplitude der LH und FSH Sekretion” value [4] is reported as “deutliche Zunahme”, the “Anstieg der Gonadotropine” value ([5]; some cases of primary amenorrhoea) is reported as “nicht oder nur in wesentlich geringerem Ausmaß” and the “Anstieg der Gonadotropine” value ([5]; some cases of secondary amenorrhoea) is reported as “deutlichen Anstieg”.
